From patent publication US9540314B2, “N-cycloalkyl-N-[(cycloalkenylphenyl)methylene]-(thio) carboxamide derivatives” (BAYER INTELLECTUAL PROPERTY GMBH, priority 2012, dated 2017) come the findings set out here.

Test [1] relates to Venturia inaequalis. The test is described as follows: In vivo preventive test on Venturia inaequalis (apples). The following applies: 100 ppm, evaluated 10 days after inoculation. On the procedure: (§1) To produce a suitable preparation of active compound, 1 part by weight of active compound is mixed with the stated amounts of solvent and emulsifier, and the concentrate is diluted with water to the desired concentration.
To test for preventive activity, young plants are sprayed with the preparation of active compound at the stated rate of application. After the spray coating has dried on, the plants are inoculated with an aqueous conidia suspension of the causal agent of apple scab (Venturia inaequalis) and then remain for 1 day in an incubation cabinet at approximately 20° C. and a relative atmospheric humidity of 100%.
The plants are then placed in a greenhouse at approximately 21° C. and a relative atmospheric humidity of approximately 90%.
The test is evaluated 10 days after the inoculation. 0% means an efficacy which corresponds to that of the untreated control, while an efficacy of 100% means that no disease is observed.
Under these conditions, excellent (at least 95%) protection is observed at a dose of 100 ppm of active ingredient with the following compound from table D: […]

The subject of test [2] is Botrytis cinerea. The test is described as follows: In vivo preventive test on Botrytis cinerea (beans). On the procedure: as §1
To test for preventive activity, young plants are sprayed with the preparation of active compound. After the spray coating has dried on, 2 small pieces of agar covered with growth of Botrytis cinerea are placed on each leaf. The inoculated plants are placed in a darkened chamber at 20° C. and a relative atmospheric humidity of 100%.
2 days after the inoculation, the size of the lesions on the leaves is evaluated. 0% means an efficacy which corresponds to that of the untreated control, while an efficacy of 100% means that no disease is observed.
Under these conditions, excellent (at least 95%) protection is observed at a dose of 100 ppm of active ingredient with the following compound from table E1: […]

On to `Cc1nn(C)c(F)c1C(=O)N(C1CC1)C(C)c1ccccc1C1=CCCC1` (racemic) [I.1], for which the Efficacy in test [1] was 98%; in test [2] (Table E1, 100 ppm, lesion size 2 days after inoculation), 98%; in test [2] (Table E2, dose 100 ppm, 2 days after inoculation), 98%; in test [2] (Table E2, dose 100 ppm, 2 days after inoculation, listed as 1.1), “at least 95%”; in test [2] (Table E2, dose 250 ppm, 2 days after inoculation), 98%; in test [2] (Table E2, dose 250 ppm, 2 days after inoculation, listed as 1.1) it was “at least 95%”.
